Tests used:
Assay in all cases: Differential Scanning Fluorimetry (DSF) Tm shift
Type in all cases: binding
STK3 Catalytic Domain = target: T1, STK3 Catalytic Domain (Homo sapiens, UniProt Q13188); conditions: 2 µM protein, 10 µM inhibitor, average of 3 experiments, each in duplicate
T1 construct: For all of them, we expressed and purified the catalytic domain separately; His-tag; made in house; host or cells: Escherichia coli
T1 sequence (Q13188 27-278 limits assumed): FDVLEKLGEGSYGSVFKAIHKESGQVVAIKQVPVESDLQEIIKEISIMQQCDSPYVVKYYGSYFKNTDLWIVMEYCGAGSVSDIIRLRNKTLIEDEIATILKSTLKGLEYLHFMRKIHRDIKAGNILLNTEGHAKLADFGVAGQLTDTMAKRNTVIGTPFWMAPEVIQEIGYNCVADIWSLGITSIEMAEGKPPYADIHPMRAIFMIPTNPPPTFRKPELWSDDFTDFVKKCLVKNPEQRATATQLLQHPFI

DMPK Catalytic Domain = target: T2, DMPK Catalytic Domain (Homo sapiens, UniProt Q09013); conditions: 2 µM protein, 10 µM inhibitor, average of 3 experiments, each in duplicate
T2 construct: For all of them, we expressed and purified the catalytic domain separately; His-tag; made in house; host or cells: Escherichia coli
T2 sequence (Q09013 71-339 limits assumed): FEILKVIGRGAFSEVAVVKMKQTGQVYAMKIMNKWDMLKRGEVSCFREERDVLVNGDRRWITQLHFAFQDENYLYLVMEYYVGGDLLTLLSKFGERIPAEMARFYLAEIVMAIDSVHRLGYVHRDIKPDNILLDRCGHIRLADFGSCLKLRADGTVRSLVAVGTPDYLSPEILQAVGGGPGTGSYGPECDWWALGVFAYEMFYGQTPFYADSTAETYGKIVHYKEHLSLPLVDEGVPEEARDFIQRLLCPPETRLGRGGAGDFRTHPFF

CDK2 + Cyclin E = target: T3, CDK2 + Cyclin E (Homo sapiens, UniProt P24941); conditions: CDK2 + Cyclin E; 2 µM protein, 10 µM inhibitor; average of 3 experiments, each in duplicate
T3 construct: CDK2 (P24941); 1–299; His-tag; made in house; host or cells: Escherichia coli

FES Catalytic Domain = target: T4, FES Catalytic Domain (Homo sapiens, UniProt P07332); conditions: 2 µM protein, 10 µM inhibitor, average of 3 experiments, each in duplicate
T4 construct: For all of them, we expressed and purified the catalytic domain separately; His-tag; made in house; host or cells: Escherichia coli
T4 sequence (P07332 561-822 limits assumed): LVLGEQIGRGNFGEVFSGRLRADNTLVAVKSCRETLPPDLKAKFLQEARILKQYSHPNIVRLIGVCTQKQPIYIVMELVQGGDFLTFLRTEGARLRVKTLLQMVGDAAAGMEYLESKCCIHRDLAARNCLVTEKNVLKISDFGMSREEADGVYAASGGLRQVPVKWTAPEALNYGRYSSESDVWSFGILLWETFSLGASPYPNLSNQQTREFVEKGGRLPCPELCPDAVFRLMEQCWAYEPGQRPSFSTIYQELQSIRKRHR

PAK7 Catalytic Domain = target: T5, PAK7 Catalytic Domain (Homo sapiens, UniProt Q9P286); conditions: 2 µM protein, 10 µM inhibitor, average of 3 experiments, each in duplicate
T5 construct: For all of them, we expressed and purified the catalytic domain separately; His-tag; made in house; host or cells: Escherichia coli
T5 sequence (Q9P286 449-700 limits assumed): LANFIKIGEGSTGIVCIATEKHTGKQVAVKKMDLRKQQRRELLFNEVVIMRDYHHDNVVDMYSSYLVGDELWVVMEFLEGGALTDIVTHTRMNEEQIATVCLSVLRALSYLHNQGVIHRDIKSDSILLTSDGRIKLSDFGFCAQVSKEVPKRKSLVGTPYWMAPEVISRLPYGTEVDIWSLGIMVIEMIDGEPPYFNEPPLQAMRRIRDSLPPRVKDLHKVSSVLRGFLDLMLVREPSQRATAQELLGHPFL

AKT3 Catalytic Domain = target: T6, AKT3 Catalytic Domain (Homo sapiens, UniProt Q9Y243); conditions: 2 µM protein, 10 µM inhibitor, average of 3 experiments, each in duplicate
T6 construct: AKT3 (Q9Y243); CD; His-tag; made in house; host or cells: Escherichia coli
T6 sequence (Q9Y243 122-479): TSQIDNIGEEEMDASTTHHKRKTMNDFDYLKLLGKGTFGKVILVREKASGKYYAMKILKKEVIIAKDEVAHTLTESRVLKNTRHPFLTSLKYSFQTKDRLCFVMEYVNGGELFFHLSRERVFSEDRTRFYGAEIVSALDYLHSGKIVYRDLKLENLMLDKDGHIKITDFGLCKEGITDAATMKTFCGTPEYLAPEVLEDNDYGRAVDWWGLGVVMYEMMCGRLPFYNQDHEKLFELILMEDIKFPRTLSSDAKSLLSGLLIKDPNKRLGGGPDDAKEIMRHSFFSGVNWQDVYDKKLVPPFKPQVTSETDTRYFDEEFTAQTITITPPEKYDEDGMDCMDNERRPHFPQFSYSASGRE

CDK2 + Cyclin A = target: T7, CDK2 + Cyclin A (Homo sapiens, UniProt P24941); conditions: CDK2 + Cyclin A; 2 µM protein, 10 µM inhibitor; average of 3 experiments, each in duplicate
T7 construct: CDK2 (P24941); 1–299; His-tag; made in house; host or cells: Escherichia coli

FAK2 Catalytic Domain = target: T8, FAK2 Catalytic Domain (Homo sapiens, UniProt Q14289); conditions: 2 µM protein, 10 µM inhibitor, average of 3 experiments, each in duplicate
T8 construct: For all of them, we expressed and purified the catalytic domain separately; His-tag; made in house; host or cells: Escherichia coli
T8 sequence (Q14289 425-683 limits assumed): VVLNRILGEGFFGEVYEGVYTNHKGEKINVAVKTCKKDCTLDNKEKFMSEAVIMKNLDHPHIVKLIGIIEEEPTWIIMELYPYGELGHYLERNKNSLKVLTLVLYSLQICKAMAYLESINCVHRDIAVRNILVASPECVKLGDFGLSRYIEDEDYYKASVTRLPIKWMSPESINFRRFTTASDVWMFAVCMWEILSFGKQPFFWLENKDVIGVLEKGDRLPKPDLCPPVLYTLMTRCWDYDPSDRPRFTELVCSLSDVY

CHK2 Catalytic Domain = target: T9, CHK2 Catalytic Domain (Homo sapiens, UniProt O96017); conditions: 2 µM protein, 10 µM inhibitor, average of 3 experiments, each in duplicate
T9 construct: For all of them, we expressed and purified the catalytic domain separately; His-tag; made in house; host or cells: Escherichia coli
T9 sequence (O96017 220-486 limits assumed): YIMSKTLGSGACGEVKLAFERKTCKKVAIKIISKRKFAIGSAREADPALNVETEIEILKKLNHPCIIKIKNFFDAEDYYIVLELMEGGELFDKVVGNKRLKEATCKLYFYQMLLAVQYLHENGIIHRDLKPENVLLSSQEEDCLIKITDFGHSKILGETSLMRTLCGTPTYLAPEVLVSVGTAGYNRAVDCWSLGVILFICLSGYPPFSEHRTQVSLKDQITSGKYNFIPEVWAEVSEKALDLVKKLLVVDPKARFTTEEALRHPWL

PAK4 Catalytic Domain = target: T10, PAK4 Catalytic Domain (Homo sapiens, UniProt O96013); conditions: 2 µM protein, 10 µM inhibitor, average of 3 experiments, each in duplicate
T10 construct: For all of them, we expressed and purified the catalytic domain separately; His-tag; made in house; host or cells: Escherichia coli
T10 sequence (O96013 321-572 limits assumed): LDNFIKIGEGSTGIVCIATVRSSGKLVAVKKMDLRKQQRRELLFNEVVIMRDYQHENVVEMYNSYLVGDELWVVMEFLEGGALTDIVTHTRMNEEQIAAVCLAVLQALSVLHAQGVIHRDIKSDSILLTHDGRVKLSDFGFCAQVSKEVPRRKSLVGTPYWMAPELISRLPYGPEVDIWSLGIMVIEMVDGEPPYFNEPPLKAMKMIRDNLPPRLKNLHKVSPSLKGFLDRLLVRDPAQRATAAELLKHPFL

FES Catalytic Domain+SH2 = target: T11, FES Catalytic Domain+SH2 (Homo sapiens, UniProt P07332); conditions: 2 µM protein, 10 µM inhibitor, average of 3 experiments, each in duplicate
T11 construct: for 8, we also made a longer version containing one or more additional domains; His-tag; made in house; host or cells: Escherichia coli
T11 sequence (P07332 448-822 limits assumed): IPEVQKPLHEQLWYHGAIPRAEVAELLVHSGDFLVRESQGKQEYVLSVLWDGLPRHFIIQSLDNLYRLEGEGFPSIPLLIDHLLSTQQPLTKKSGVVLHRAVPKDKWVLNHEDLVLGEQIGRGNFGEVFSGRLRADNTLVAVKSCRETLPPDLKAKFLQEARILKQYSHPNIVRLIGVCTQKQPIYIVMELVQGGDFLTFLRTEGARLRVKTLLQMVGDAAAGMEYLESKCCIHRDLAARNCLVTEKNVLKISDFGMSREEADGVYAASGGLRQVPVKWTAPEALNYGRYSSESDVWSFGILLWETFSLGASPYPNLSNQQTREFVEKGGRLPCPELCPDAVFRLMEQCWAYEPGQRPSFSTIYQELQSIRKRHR

[1] = target: T12, STK3 Catalytic domain+SARAH (Homo sapiens, UniProt Q13188); conditions: 2 µM protein, 10 µM inhibitor, average of 3 experiments, each in duplicate
T12 construct: for 8, we also made a longer version containing one or more additional domains; His-tag; made in house; host or cells: Escherichia coli
T12 sequence (Q13188 1-491): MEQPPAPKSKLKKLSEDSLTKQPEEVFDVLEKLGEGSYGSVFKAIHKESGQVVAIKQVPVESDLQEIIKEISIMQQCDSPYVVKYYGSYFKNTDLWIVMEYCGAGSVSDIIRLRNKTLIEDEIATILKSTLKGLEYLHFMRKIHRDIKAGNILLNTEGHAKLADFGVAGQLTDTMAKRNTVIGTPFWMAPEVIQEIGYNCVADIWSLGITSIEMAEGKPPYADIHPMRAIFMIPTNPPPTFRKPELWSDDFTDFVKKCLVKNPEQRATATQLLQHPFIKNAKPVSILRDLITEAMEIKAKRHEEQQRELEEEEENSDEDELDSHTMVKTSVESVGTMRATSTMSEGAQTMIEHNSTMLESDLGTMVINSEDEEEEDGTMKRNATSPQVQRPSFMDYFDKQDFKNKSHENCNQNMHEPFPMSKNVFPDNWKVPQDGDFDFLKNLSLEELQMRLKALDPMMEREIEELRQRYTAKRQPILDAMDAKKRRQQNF

[2] = target: T13, PAK4 Catalytic Domain+PBD (Homo sapiens, UniProt O96013); conditions: 2 µM protein, 10 µM inhibitor, average of 3 experiments, each in duplicate
T13 construct: for 8, we also made a longer version containing one or more additional domains; His-tag; made in house; host or cells: Escherichia coli
T13 sequence (O96013 whole entry, the tested form may be a part): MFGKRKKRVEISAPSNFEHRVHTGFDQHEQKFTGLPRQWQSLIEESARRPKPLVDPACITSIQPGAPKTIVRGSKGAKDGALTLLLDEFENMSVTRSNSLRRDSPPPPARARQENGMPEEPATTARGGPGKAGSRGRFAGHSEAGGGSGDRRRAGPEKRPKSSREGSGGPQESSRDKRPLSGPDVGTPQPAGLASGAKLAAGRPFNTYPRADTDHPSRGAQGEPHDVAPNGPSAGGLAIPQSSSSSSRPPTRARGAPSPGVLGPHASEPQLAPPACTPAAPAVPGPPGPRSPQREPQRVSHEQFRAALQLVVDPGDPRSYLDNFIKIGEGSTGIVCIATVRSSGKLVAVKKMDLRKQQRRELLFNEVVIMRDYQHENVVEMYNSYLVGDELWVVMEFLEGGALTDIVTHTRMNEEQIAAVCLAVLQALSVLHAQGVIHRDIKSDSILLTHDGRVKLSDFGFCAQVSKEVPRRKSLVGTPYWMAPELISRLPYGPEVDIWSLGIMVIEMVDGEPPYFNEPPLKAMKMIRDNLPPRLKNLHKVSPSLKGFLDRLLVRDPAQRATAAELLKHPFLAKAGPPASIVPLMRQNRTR

[3] = target: SRC Catalytic Domain+SH2+SH3 (Homo sapiens, UniProt P12931); conditions: 2 µM protein, 10 µM inhibitor, average of 3 experiments, each in duplicate
Chain of SRC Catalytic Domain+SH2+SH3 (P12931 84-523 limits assumed): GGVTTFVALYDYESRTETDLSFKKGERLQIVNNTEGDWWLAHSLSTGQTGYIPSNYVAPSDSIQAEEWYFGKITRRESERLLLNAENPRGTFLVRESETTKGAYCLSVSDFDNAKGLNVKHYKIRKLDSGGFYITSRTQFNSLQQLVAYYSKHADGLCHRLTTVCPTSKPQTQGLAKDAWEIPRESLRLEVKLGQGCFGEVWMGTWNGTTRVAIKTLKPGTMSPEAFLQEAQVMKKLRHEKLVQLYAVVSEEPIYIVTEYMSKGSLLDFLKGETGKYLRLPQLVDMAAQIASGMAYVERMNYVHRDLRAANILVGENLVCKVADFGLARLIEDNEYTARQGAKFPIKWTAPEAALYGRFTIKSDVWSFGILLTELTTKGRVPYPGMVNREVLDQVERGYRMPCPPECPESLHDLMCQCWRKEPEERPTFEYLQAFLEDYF

| SMILES | Melting temperature (Tm) shift (STK3 Catalytic Domain) | Melting temperature (Tm) shift (DMPK Catalytic Domain) | Melting temperature (Tm) shift (CDK2 + Cyclin E) | Melting temperature (Tm) shift (FES Catalytic Domain) | Melting temperature (Tm) shift (PAK7 Catalytic Domain) | Melting temperature (Tm) shift (AKT3 Catalytic Domain) | Melting temperature (Tm) shift (CDK2 + Cyclin A) | Melting temperature (Tm) shift (FAK2 Catalytic Domain) | Melting temperature (Tm) shift (CHK2 Catalytic Domain) | Melting temperature (Tm) shift (PAK4 Catalytic Domain) | Melting temperature (Tm) shift (FES Catalytic Domain+SH2) | Melting temperature (Tm) shift [1] | Melting temperature (Tm) shift [2] | Melting temperature (Tm) shift [3] |
| --- | --- | --- | --- | --- | --- | --- | --- | --- | --- | --- | --- | --- | --- | --- |
| O=C1NC(=O)c2c1c1c3ccccc3[nH]c1n1cncc21 [Isogranulatimide] | 2.6 degrees Celcius | 0.5 degrees Celcius | 0.2 degrees Celcius | 1.6 degrees Celcius | 0.2 degrees Celcius | 2.9 degrees Celcius | 0.1 degrees Celcius | 0.8 degrees Celcius | 4.5 degrees Celcius | 0.4 degrees Celcius | 0.5 degrees Celcius | 1.3 degrees Celcius | – | – |
| O.O=C1NCCc2[nH]c(-c3ccnc(-c4cnc5ccccc5c4)c3)cc21 [MK-2 Inhibitor III] | 0.0 degrees Celcius | 0.3 degrees Celcius | – | – | 0.0 degrees Celcius | 0.0 degrees Celcius | 0.1 degrees Celcius | 0.1 degrees Celcius | 1.2 degrees Celcius | 0.0 degrees Celcius | – | 0.4 degrees Celcius | 0.1 degrees Celcius | 0.1 degrees Celcius |
| CCN1/C(=C/C(C)=O)Sc2ccc(OC)cc21 [Cdc2-Like Kinase Inhibitor, TG003] | 0.0 degrees Celcius | 0.2 degrees Celcius | 0.0 degrees Celcius | 0.0 degrees Celcius | 0.0 degrees Celcius | – | 0.0 degrees Celcius | 0.1 degrees Celcius | 0.0 degrees Celcius | – | – | – | – | – |
| CC(C)n1cnc2c(NCc3ccccc3O)nc(NCCCO)nc21 [Cdk Inhibitor, p35] | 0.3 degrees Celcius | 0.3 degrees Celcius | 2.0 degrees Celcius | 1.1 degrees Celcius | 1.1 degrees Celcius | – | 3.6 degrees Celcius | 0.0 degrees Celcius | 0.8 degrees Celcius | 1.4 degrees Celcius | 0.2 degrees Celcius | 0.4 degrees Celcius | 3.9 degrees Celcius | – |
| O=C1NC(=O)c2c1c1c3ccccc3[nH]c1c1[nH]c3cc(Br)ccc3c21 [Cdk4 Inhibitor] | – | 0.8 degrees Celcius | 0.7 degrees Celcius | – | – | – | – | – | – | 0.7 degrees Celcius | – | – | 0.4 degrees Celcius | – |

Reference: publication PMC4051630, “A Comparison of Protein Kinases Inhibitor Screening Methods Using Both Enzymatic Activity and Binding Affinity Determination” (PLoS ONE, 2014)
